Where a name gives a salt, the structure may show the parent alone. Read-outs that look alike come from different tables or passages of the source.
Tests used:
[1] = target: Tyk2 (Homo sapiens (Human), UniProt P29597); assay: pSTAT4 Cell Assay (MSD, NK92 cells); assay type: cell-based
[2] = target: JH2 domain of human Tyk2 (Homo sapiens (Human), UniProt P29597); assay: JH2 Biochemical Assay (TR-FRET probe displacement); assay type: binding
[3] = JH2 domain of human Tyk2, TR-FRET probe displacement
[4] = TR-FRET probe displacement, JH2 domain of human Tyk2
[5] = TR-FRET probe displacement, JH2 domain

Chain of Tyk2 (P29597 whole entry, the tested form may be a part): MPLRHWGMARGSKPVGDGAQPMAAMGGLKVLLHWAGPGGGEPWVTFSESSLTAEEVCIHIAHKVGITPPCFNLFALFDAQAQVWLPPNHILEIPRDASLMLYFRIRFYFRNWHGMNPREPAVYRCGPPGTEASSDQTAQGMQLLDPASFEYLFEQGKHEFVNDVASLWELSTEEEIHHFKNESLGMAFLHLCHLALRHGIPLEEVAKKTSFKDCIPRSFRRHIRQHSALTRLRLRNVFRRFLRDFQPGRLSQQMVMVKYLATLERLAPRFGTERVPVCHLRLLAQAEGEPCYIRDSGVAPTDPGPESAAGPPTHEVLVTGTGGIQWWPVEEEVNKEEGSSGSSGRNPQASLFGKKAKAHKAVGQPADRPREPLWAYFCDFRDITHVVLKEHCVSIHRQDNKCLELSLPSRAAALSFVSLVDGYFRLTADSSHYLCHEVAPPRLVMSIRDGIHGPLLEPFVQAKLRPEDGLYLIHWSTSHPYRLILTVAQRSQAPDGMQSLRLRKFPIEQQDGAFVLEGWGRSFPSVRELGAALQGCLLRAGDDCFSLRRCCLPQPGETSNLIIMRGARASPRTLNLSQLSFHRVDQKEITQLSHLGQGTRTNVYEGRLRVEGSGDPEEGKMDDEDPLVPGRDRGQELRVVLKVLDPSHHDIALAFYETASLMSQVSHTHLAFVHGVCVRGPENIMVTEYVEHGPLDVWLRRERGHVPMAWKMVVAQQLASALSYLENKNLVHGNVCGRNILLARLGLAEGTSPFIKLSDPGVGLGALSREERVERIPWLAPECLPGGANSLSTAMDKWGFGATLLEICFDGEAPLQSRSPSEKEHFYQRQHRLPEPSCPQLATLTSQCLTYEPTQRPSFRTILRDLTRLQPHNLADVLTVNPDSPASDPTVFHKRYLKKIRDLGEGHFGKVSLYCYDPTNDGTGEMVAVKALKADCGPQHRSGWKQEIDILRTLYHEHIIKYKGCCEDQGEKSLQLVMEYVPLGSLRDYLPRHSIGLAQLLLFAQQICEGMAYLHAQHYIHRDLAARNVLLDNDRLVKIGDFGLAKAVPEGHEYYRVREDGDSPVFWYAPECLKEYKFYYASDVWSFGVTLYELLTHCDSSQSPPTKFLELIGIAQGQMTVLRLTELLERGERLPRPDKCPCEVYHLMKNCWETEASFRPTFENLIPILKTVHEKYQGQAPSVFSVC
Chain of JH2 domain of human Tyk2 (P29597 575-876): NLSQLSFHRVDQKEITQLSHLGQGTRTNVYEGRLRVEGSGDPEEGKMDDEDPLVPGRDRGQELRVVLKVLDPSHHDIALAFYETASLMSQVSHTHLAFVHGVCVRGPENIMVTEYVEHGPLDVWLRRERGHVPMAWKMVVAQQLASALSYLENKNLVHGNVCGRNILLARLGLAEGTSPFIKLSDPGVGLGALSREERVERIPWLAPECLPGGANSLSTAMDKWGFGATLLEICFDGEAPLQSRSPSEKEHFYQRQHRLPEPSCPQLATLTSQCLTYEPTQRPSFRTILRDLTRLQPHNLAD

Row | SMILES | IC50 ([1]; MSD) | IC50 [2, 3] | IC50 [2, 4] | IC50 [1] | IC50 [2, 5]
1 | CCOc1cnc(NC(C)=O)cc1Nc1cc(O[C@H]2C[C@@H](F)C2)nc(C(C)(F)F)n1 [Example 458, N-(4-((2-(1,1-difluoroethyl)-6-((1s,3s)-3-fluorocyclobutoxy)pyrimidin-4-yl)amino)-5-ethoxypyridin-2-yl)acetamide] | ≤ 10 nM | ≤ 10 nM |  |  | 
2 | CCc1cnc(NC(C)=O)cc1Nc1cc(C)nc(C(C)(F)F)n1 [Example 42, N-(4-((2-(1,1-difluoroethyl)-6-methylpyrimidin-4-yl)amino)-5-ethylpyridin-2-yl)acetamide] | ≥ 1000 nM |  | 10 to 100 nM |  | 
3 | COc1nc(-c2cnc(NC(C)=O)cc2Nc2cc(C)nc(C(C)(F)F)n2)cs1 [Example 617, N-(4-((2-(1,1-difluoroethyl)-6-methylpyrimidin-4-yl)amino)-5-(2-methoxythiazol-4-yl)pyridin-2-yl)acetamide] | ≤ 10 nM | ≤ 10 nM |  |  | 
4 | CCCc1cnc(NC(C)=O)cc1Nc1cc(C)nc(C(C)(F)F)n1 [Example 43, N-(4-((2-(1,1-difluoroethyl)-6-methylpyrimidin-4-yl)amino)-5-propylpyridin-2-yl)acetamide] | ≥ 1000 nM |  | 10 to 100 nM |  | 
5 | COCC(C)COc1cnc(NC(C)=O)cc1Nc1cc(C)nc(C(C)(F)F)n1 (stereo not shown) [Example 440, N-(4-((2-(1,1-difluoroethyl)-6-methylpyrimidin-4-yl)amino)-5-(3-methoxy-2-methylpropoxy)pyridin-2-yl)acetamide] | 10 to 100 nM | ≤ 10 nM |  |  | 
6 | CC(=O)Nc1cc(Nc2cc(C)nc(C(C)(F)F)n2)c(-c2nc3n(n2)CCOC3)cn1 [Example 760, N-(4-((2-(1,1-difluoroethyl)-6-methylpyrimidin-4-yl)amino)-5-(5,6-dihydrO8H-[1,2,4]triazolo[5,1-c][1,4]oxazin-2-yl)pyridin-2-yl)acetamide] |  |  |  | 10 to 100 nM | ≤ 10 nM
7 | CCOc1cnc(NC(=O)CC)cc1Nc1cc(C)nc(C(C)(F)F)n1 [Example 9, N-(4-((2-(1,1-difluoroethyl)-6-methylpyrimidin-4-yl)amino)-5-ethoxypyridin-2-yl)propionamide] | 10 to 100 nM |  | ≤ 10 nM |  | 
8 | COc1cnc(NC(C)=O)cc1Nc1cc(C)nc(C23COC(C2)C3)n1 [Example 448, N-(4-((2-(2-oxabicyclo[2.1.1]hexan-4-yl)-6-methylpyrimidin-4-yl)amino)-5-methoxypyridin-2-yl)acetamide] | 100 to 1000 nM | 10 to 100 nM |  |  | 
9 | CC(=O)Nc1cc(Nc2cc(C)nc(C(C)(F)F)n2)c(OCC2COC2)cn1 [Example 61, N-(4-((2-(1,1-difluoroethyl)-6-methylpyrimidin-4-yl)amino)-5-(oxetan-3-ylmethoxy)pyridin-2-yl)acetamide] | 10 to 100 nM |  | ≤ 10 nM |  | 
10 | CC(=O)Nc1cc(Nc2cc(C)nc(C34COC(C3)C4)n2)c(-c2ccc(C(F)F)cn2)cn1 [Example 572, N-(4′-((2-(2-oxabicyclo[2.1.1]hexan-4-yl)-6-methylpyrimidin-4-yl)amino)-5-(difluoromethyl)-[2,3′-bipyridin]-6′-yl)acetamide] | ≤ 10 nM | ≤ 10 nM |  |  | 
11 | CCc1cc(Nc2cc(NC(C)=O)ncc2OCCOC(F)F)nc(C(C)(F)F)n1 [Example 68, N-(4-((2-(1,1-difluoroethyl)-6-ethylpyrimidin-4-yl)amino)-5-(2-(difluoromethoxy)ethoxy)pyridin-2-yl)acetamide] | ≤ 10 nM |  | ≤ 10 nM |  | 
12 | CC(=O)Nc1cc(Nc2cc(C)nc(C(C)(F)F)n2)c(OC[C@H]2C[C@H]2CF)cn1 (racemic) [Example 428, Cis-rac-N-(4-((2-(1,1-difluoroethyl)-6-methylpyrimidin-4-yl)amino)-5-((2-(fluoromethyl)cyclopropyl)methoxy)pyridin-2-yl)acetamide] | 10 to 100 nM | ≤ 10 nM |  |  | 
13 | CCOc1cnc(NC(C)=O)cc1Nc1cc(-c2cccnc2)nc(C(C)(F)F)n1 [Example 96, N-(4-((2-(1,1-difluoroethyl)-6-(pyridin-3-yl)pyrimidin-4-yl)amino)-5-ethoxypyridin-2-yl)acetamide] | 10 to 100 nM |  | ≤ 10 nM |  | 
14 | CCc1cc(Nc2cc(NC(C)=O)ncc2-c2ccncn2)nc(C(C)(C)F)n1 [Example 801, N-(4-((6-ethyl-2-(2-fluoropropan-2-yl)pyrimidin-4-yl)amino)-5-(pyrimidin-4-yl)pyridin-2-yl)acetamide] |  |  |  | ≤ 10 nM | ≤ 10 nM
15 | CC(=O)Nc1cc(Nc2cc(C)nc(C(C)(F)F)n2)c(OCc2nccn2C)cn1 [Example 496, N-(4-((2-(1,1-difluoroethyl)-6-methylpyrimidin-4-yl)amino)-5-((1-methyl-1H-imidazol-2-yl)methoxy)pyridin-2-yl)acetamide] | ≥ 1000 nM | 10 to 100 nM |  |  | 
16 | CCc1cnc(COc2cnc(NC(C)=O)cc2Nc2cc(C)nc(C(C)(F)F)n2)o1 [Example 327, N-(4-((2-(1,1-difluoroethyl)-6-methylpyrimidin-4-yl)amino)-5-((5-ethyloxazol-2-yl)methoxy)pyridin-2-yl)acetamide] | 10 to 100 nM |  | ≤ 10 nM |  | 
17 | COc1cnc(NC(C)=O)cc1Nc1cc(OC2CCC2)nc(C(C)(F)F)n1 [Example 455, N-(4-((6-cyclobutoxy-2-(1,1-difluoroethyl)pyrimidin-4-yl)amino)-5-methoxypyridin-2-yl)acetamide trifluoroacetate] | ≤ 10 nM | ≤ 10 nM |  |  | 
18 | CO[C@H]1C[C@@H](Oc2cnc(NC(C)=O)cc2Nc2cc(C(C)C)nc(C(C)(F)F)n2)C1 [Example 409, N-(4-((2-(1,1-difluoroethyl)-6-isopropylpyrimidin-4-yl)amino)-5-((1s,3s)-3-methoxycyclobutoxy)pyridin-2-yl)acetamide] | 10 to 100 nM | ≤ 10 nM |  |  | 
19 | CC(=O)Nc1cc(Nc2cc(C)nc(C(C)(F)F)n2)c(OCc2cocn2)cn1 [Example 505, N-(4-((2-(1,1-difluoroethyl)-6-methylpyrimidin-4-yl)amino)-5-(oxazol-4-ylmethoxy)pyridin-2-yl)acetamide] | 10 to 100 nM | ≤ 10 nM |  |  | 
20 | CC(=O)Nc1cc(Nc2ccnc(C(C)(F)F)n2)c(-c2nnc(N3CCN(C)CC3)s2)cn1 [Example 774, N-(4-((2-(1,1-difluoroethyl)pyrimidin-4-yl)amino)-5-(5-(4-methylpiperazin-1-yl)-1,3,4-thiadiazol-2-yl)pyridin-2-yl)acetamide] |  |  |  | ≤ 10 nM | ≤ 10 nM
21 | CC(=O)Nc1cc(Nc2ccnc(C(C)(F)F)n2)c(-c2ncccc2F)cn1 [Example 698, N-(4′-((2-(1,1-difluoroethyl)pyrimidin-4-yl)amino)-3-fluorO[2,3′-bipyridin]-6′-yl)acetamide] | 100 to 1000 nM | 10 to 100 nM |  |  | 
22 | CC(=O)Nc1cc(Nc2cc(C)nc(C34CC(CO3)C4)n2)c(-c2ccc(COC(F)F)cn2)cn1 [Example 142, N-(4′-((2-(2-oxabicyclo[2.1.1]hexan-1-yl)-6-methylpyrimidin-4-yl)amino)-5-((difluoromethoxy)methyl)-[2,3′-bipyridin]-6′-yl)acetamide] | 10 to 100 nM |  | ≤ 10 nM |  | 
23 | CC(=O)Nc1cc(Nc2cc(C)nc(C(C)(F)F)n2)c(OCc2scnc2C)cn1 [Example 334, N-(4-((2-(1,1-difluoroethyl)-6-methylpyrimidin-4-yl)amino)-5-((4-methylthiazol-5-yl)methoxy)pyridin-2-yl)acetamide] | 100 to 1000 nM |  | 10 to 100 nM |  | 
